Measurements reported in publication PMC8119466, “A screen of FDA-approved drugs identifies inhibitors of protein tyrosine phosphatase 4A3 (PTP4A3 or PRL-3)” (Scientific Reports, 2021).
Structures can show the parent of a compound that is named as a salt.

Columns and labels:
Type in all cases: biochemical
Details in all cases: FDA-approved drug screen
recombinant PRL-1 = molecular target: T1, recombinant PRL-1 (Homo sapiens, UniProt Q93096); assay: In vitro phosphatase assay (DiFMUP hydrolysis), PRL-1; note: test concentration or dose not given here
T1 construct: 6xHis (N, cleaved yes); made in house; host or cells: E. coli One Shot BL21 Star
T1 sequence (Q93096 1-173): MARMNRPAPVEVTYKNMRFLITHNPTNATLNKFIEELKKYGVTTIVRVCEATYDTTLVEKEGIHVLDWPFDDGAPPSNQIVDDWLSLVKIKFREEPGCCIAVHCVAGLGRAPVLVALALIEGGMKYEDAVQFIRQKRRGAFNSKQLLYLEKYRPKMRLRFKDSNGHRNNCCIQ

recombinant PRL-2 = molecular target: T2, recombinant PRL-2 (Homo sapiens, UniProt Q12974); assay: In vitro phosphatase assay (DiFMUP hydrolysis), PRL-2;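 note: PRL-2 activity read as DiFMUP hydrolysis after 20 min at room temperature with drug, enzyme first pre-reduced at 4 °C for 20 min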
T2 construct: 6xHis (N, cleaved yes); made in house; host or cells: E. coli One Shot BL21 Star
T2 sequence (Q12974 1-167): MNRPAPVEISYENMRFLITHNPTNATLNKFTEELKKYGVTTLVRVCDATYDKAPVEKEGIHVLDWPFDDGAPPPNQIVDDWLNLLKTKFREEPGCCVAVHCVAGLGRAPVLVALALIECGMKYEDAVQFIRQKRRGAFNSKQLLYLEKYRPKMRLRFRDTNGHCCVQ

recombinant PRL-3 = molecular target: T3, recombinant PRL-3 (Homo sapiens, UniProt O75365); assay: In vitro phosphatase assay (DiFMUP hydrolysis), PRL-3; note: test concentration or dose not given here
T3 construct: 6xHis (N, cleaved yes); made in house; host or cells: E. coli One Shot BL21 Star
T3 sequence (O75365 whole entry): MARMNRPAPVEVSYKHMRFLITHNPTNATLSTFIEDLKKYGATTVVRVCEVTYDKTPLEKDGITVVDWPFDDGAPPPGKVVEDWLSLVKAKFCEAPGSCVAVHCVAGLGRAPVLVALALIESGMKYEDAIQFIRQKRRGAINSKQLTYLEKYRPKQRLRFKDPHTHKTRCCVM

| SMILES | % Phosphatase Activity (compared to DMSO) PRL-1 (recombinant PRL-1; compared to DMSO) [%] | % Phosphatase Activity (compared to DMSO) PRL-2 (recombinant PRL-2; compared to DMSO) [%] | % Phosphatase Activity (compared to DMSO) PRL-3 (recombinant PRL-3; compared to DMSO) [%] | % Phosphatase Activity (compared to DMSO) PRL-1 (recombinant PRL-1; activity compared to DMSO) [%] | % Phosphatase Activity (compared to DMSO) PRL-2 (recombinant PRL-2; activity compared to DMSO) [%] | % Phosphatase Activity (compared to DMSO) PRL-3 (recombinant PRL-3; activity compared to DMSO) [%] |
| --- | --- | --- | --- | --- | --- | --- |
| CCCN(CCc1cccs1)[C@H]1CCc2c(O)cccc2C1 [Rotigotine] | 100 | 99 | 82 |  |  |  |
| CC(=O)OCC(=O)NCCCOc1cccc(CN2CCCCC2)c1 [Roxatidine Acetate HCl] | 96 | 111 | 95 |  |  |  |
| CC[C@H]1OC(=O)[C@H](C)[C@@H](O[C@H]2C[C@@](C)(OC)[C@@H](O)[C@H](C)O2)[C@H](C)[C@@H](O[C@@H]2O[C@H](C)C[C@H](N(C)C)[C@H]2O)[C@](C)(O)C[C@@H](C)/C(=N\OCOCCOC)[C@H](C)[C@@H](O)[C@]1(C)O [Roxithromycin] | 93 | 105 | 70 |  |  |  |
| CNCc1ccc(-c2[nH]c3cc(F)cc4c3c2CCNC4=O)cc1 [Rucaparib (AG-014699,PF-01367338)] | 2402 | 3226 | 2134 |  |  |  |
| NC(=O)c1cn(Cc2c(F)cccc2F)nn1 [Rufinamide] | 91 | 91 | 77 |  |  |  |
| Cc1cncc(CN2CCC(=C3c4ccc(Cl)cc4CCc4cccnc43)CC2)c1.O=C(O)/C=C/C(=O)O [Rupatadine Fumarate] | 92 | 100 | 98 |  |  |  |
| C[C@@H]1O[C@@H](OC[C@H]2O[C@@H](Oc3c(-c4ccc(O)c(O)c4)oc4cc(O)cc(O)c4c3=O)[C@H](O)[C@@H](O)[C@@H]2O)[C@H](O)[C@H](O)[C@H]1O [Rutin] | 88 | 82 | 71 |  |  |  |
| N#CC[C@H](C1CCCC1)n1cc(-c2ncnc3[nH]ccc23)cn1 [Ruxolitinib (INCB018424)] | 116 | 132 | 66 |  |  |  |
| COc1ccc([C@H]2CNC(=O)C2)cc1OC1CCCC1 [S- (+)-Rolipram] | 107 | 110 | 87 |  |  |  |
| CCn1c(=O)c(-c2cc[nH]n2)cc2c(C)nc(N)nc21 [SAR245409 (XL765)] | 89 | 74 | 74 |  |  |  |
| C[C@H](NCc1ccc(OCc2cccc(F)c2)cc1)C(N)=O [Safinamide Mesylate] | 103 | 112 | 86 |  |  |  |
| CC(C)(C)NCC(O)c1ccc(O)c(CO)c1.CC(C)(C)NCC(O)c1ccc(O)c(CO)c1.O=S(=O)(O)O (stereo not drawn) [Salbutamol Sulfate] | 94 | 90 | 88 |  |  |  |
| O=C(O)c1ccccc1O [Salicylic acid] | 103 | 124 | 98 |  |  |  |
| OCc1cc(C(O)CNCCCCCCOCCCCc2ccccc2)ccc1O (stereo not drawn) [Salmeterol Xinafoate] | 146 | 136 | 110 |  |  |  |
| CN1CCN(CCOc2cc(OC3CCOCC3)c3c(Nc4c(Cl)ccc5c4OCO5)ncnc3c2)CC1 [Saracatinib (AZD0530)] | 99 | 98 | 79 |  |  |  |
| O=C(O)c1cn(-c2ccc(F)cc2)c2cc(N3CCNCC3)c(F)cc2c1=O [Sarafloxacin HCl] | 108 | 108 | 116 |  |  |  |

| SMILES | % Phosphatase Activity (compared to DMSO) PRL-1 (recombinant PRL-1; compared to DMSO) [%] | % Phosphatase Activity (compared to DMSO) PRL-2 (recombinant PRL-2; compared to DMSO) [%] | % Phosphatase Activity (compared to DMSO) PRL-3 (recombinant PRL-3; compared to DMSO) [%] | % Phosphatase Activity (compared to DMSO) PRL-1 (recombinant PRL-1; activity compared to DMSO) [%] | % Phosphatase Activity (compared to DMSO) PRL-2 (recombinant PRL-2; activity compared to DMSO) [%] | % Phosphatase Activity (compared to DMSO) PRL-3 (recombinant PRL-3; activity compared to DMSO) [%] |
| --- | --- | --- | --- | --- | --- | --- |
| N#C[C@@H]1C[C@@H]2C[C@@H]2N1C(=O)[C@@H](N)C12CC3CC(CC(O)(C3)C1)C2 [Saxagliptin hydrate] | 93 | 80 | 86 |  |  |  |
| N#C[C@@H]1C[C@@H]2C[C@@H]2N1C(=O)[C@@H](N)C12CC3CC(CC(O)(C3)C1)C2 [Saxagliptin] | 106 | 113 | 79 |  |  |  |
| Cc1ncc([N+](=O)[O-])n1CC(C)O (stereo not drawn) [Secnidazole] | 112 | 102 | 81 |  |  |  |
| Cn1cnc2c(F)c(Nc3ccc(Br)cc3Cl)c(C(=O)NOCCO)cc21 [Selumetinib (AZD6244)] | 92 | 93 | 87 |  |  |  |
| CC(C)[C@H](O)C(=O)N[C@@H](C)C(=O)N[C@@H]1C(=O)N(C)CCc2ccccc21 [Semagacestat (LY450139)] | 104 | 120 | 86 |  |  |  |
| Cl.NCCc1c[nH]c2ccc(O)cc12 [Serotonin HCl] | 106 | 101 | 80 |  |  |  |
| Clc1ccc(C(Cn2ccnc2)OCc2csc3c(Cl)cccc23)c(Cl)c1 (stereo not drawn) [Sertaconazole nitrate] |  |  |  | 110 | 101 | 99 |
| CN[C@H]1CC[C@@H](c2ccc(Cl)c(Cl)c2)c2ccccc21 [Sertraline HCl] |  |  |  | 96 | 101 | 75 |
| CCCc1nn(C)c2c(=O)[nH]c(-c3cc(S(=O)(=O)N4CCN(C)CC4)ccc3OCC)nc12 [Sildenafil Citrate] |  |  |  | 100 | 88 | 84 |
| CCCc1nn(C)c2c(=O)[nH]c(-c3cc(S(=O)(=O)N4CCN(C)CC4)ccc3OCC)nc12.CS(=O)(=O)O [Sildenafil Mesylate] |  |  |  | 94 | 79 | 94 |
| CCCc1nn(C)c2c(=O)[nH]c(-c3cc(S(=O)(=O)N4CCN(C)CC4)ccc3OCC)nc12 [Sildenafil] |  |  |  | 75 | 72 | 99 |
| COc1cc(C2Oc3cc([C@H]4Oc5cc(O)cc(O)c5C(=O)[C@@H]4O)ccc3OC2CO)ccc1O (stereo partly drawn) [Silibinin] |  |  |  | 88 | 87 | 87 |
| C[C@H](Cc1cc2c(c(C(N)=O)c1)N(CCCO)CC2)NCCOc1ccccc1OCC(F)(F)F [Silodosin] |  |  |  | 117 | 104 | 95 |
| CCC(C)(C)C(=O)O[C@H]1C[C@@H](C)C=C2C=C[C@H](C)[C@H](CC[C@@H]3C[C@@H](O)CC(=O)O3)[C@H]21 [Simvastatin] |  |  |  | 84 | 94 | 91 |
| CN[C@@H]1[C@@H](O)[C@@H](O[C@@H]2[C@@H](O)[C@H](O[C@H]3OC(CN)=CC[C@H]3N)[C@@H](N)C[C@H]2N)OC[C@]1(C)O [Sisomicin sulfate] |  |  |  | 83 | 84 | 107 |
| N[C@@H]1CN(c2c(F)cc3c(=O)c(C(=O)O)cn([C@@H]4C[C@@H]4F)c3c2Cl)CC12CC2.O [Sitafloxacin Hydrate] |  |  |  | 91 | 90 | 81 |
